Values after ≈ are worked out from the molar mass of the structure shown. Active and inactive are the calls of the source. The rule behind the calls is not given here.
Columns and labels:
[1] = tested on: Trypanosoma brucei rhodesiense; assay: Antitrypanosomal activity against wild-type Trypanosoma brucei rhodesiense STIB900 infected in NMRI mouse assessed as survival of mouse at 100 mg/kg, po for 4 days; assay type: functional
[2] = tested on: Trypanosoma brucei rhodesiense; assay: Antitrypanosomal activity against wild-type Trypanosoma brucei rhodesiense STIB900 infected in NMRI mouse assessed as cure from infection at 100 mg/kg, po for 4 days; assay type: functional, organism-based; parameters: dose 100 mg/kg
[3] = Ratio of IC50 for Trypanosoma brucei gambiense K03048 to IC50 for wild-type Trypanosoma brucei rhodesiense STIB900; assay type: functional
[4] = tested on: Trypanosoma brucei rhodesiense; assay: Ratio of IC50 for melasoprol-resistant Trypanosoma brucei rhodesiense STIB900 to IC50 for wild-type Trypanosoma brucei rhodesiense […]; assay type: functional
[5] = tested on: Trypanosoma brucei rhodesiense; assay: Antitrypanosomal activity against wild-type Trypanosoma brucei rhodesiense STIB900 infected in NMRI mouse assessed as survival of mouse at 10 mg/kg, ip for 4 days; assay type: functional; settings: route intraperitoneal
[6] = tested on: Trypanosoma brucei rhodesiense; assay: Antitrypanosomal activity against wild-type Trypanosoma brucei rhodesiense STIB900 infected in NMRI mouse assessed as survival of mouse at 20 mg/kg, ip for 4 days; assay type: functional; settings: route intraperitoneal
[7] = tested on: Trypanosoma brucei brucei; assay: Ratio of IC50 for Trypanosoma brucei brucei AT1KO to IC50 for Trypanosoma brucei brucei BS221; assay type: functional
[8] = tested on: Trypanosoma brucei rhodesiense; assay: Antitrypanosomal activity against melasoprol-resistant Trypanosoma brucei rhodesiense STIB900 by Alamar blue assay; assay type: functional, organism-based
[9] = tested on: Trypanosoma brucei brucei; assay: Antitrypanosomal activity against Trypanosoma brucei brucei GVR35 infected in NMRI mouse CNS model assessed as survival of mouse at 20 mg/kg, ip for 5 days; assay type: functional; settings: route intraperitoneal
[10] = tested on: Trypanosoma brucei rhodesiense; assay: Ratio of IC50 for pentamidine-resistant Trypanosoma brucei rhodesiense STIB900 to IC50 for wild-type Trypanosoma brucei rhodesiense STIB900; assay type: functional
[11] = tested on: Trypanosoma brucei brucei; assay: Antitrypanosomal activity against Trypanosoma brucei brucei AT1KO by Alamar blue assay; assay type: functional, organism-based
[12] = tested on: Trypanosoma brucei gambiense; assay: Antitrypanosomal activity against Trypanosoma brucei gambiense K03048 by Alamar blue assay; assay type: functional, organism-based
[13] = tested on: Trypanosoma brucei gambiense; assay: Ratio of IC50 for Trypanosoma brucei gambiense K03048 to IC50 for Trypanosoma brucei gambiense STIB930; assay type: functional
[14] = tested on: Trypanosoma brucei rhodesiense; assay: Antitrypanosomal activity against wild-type Trypanosoma brucei rhodesiense STIB900 infected in NMRI mouse assessed as cure from infection at 20 mg/kg, ip for 4 days; assay type: functional, organism-based; parameters: dose 20 mg/kg
[15] = tested on: Trypanosoma brucei gambiense; assay: Antitrypanosomal activity against Trypanosoma brucei gambiense ITMAP141267 by Alamar blue assay; assay type: functional, organism-based
[16] = tested on: Trypanosoma brucei brucei; assay: Antitrypanosomal activity against Trypanosoma brucei brucei BS221 by Alamar blue assay; assay type: functional, organism-based
[17] = Ratio of IC50 for Trypanosoma brucei gambiense ITMAP141267 to IC50 for wild-type Trypanosoma brucei rhodesiense […]; assay type: functional
[18] = tested on: Trypanosoma brucei rhodesiense; assay: Antitrypanosomal activity against pentamidine-resistant Trypanosoma brucei rhodesiense STIB900 by Alamar blue assay; assay type: functional, organism-based
[19] = Ratio of IC50 for Trypanosoma brucei gambiense STIB930 to IC50 for wild-type Trypanosoma brucei rhodesiense […]; assay type: functional
[20] = tested on: Trypanosoma brucei gambiense; assay: Antitrypanosomal activity against Trypanosoma brucei gambiense STIB930 by Alamar blue assay; assay type: functional, organism-based
[21] = tested on: Trypanosoma brucei rhodesiense; assay: Antitrypanosomal activity against wild-type Trypanosoma brucei rhodesiense STIB900 infected in NMRI mouse assessed as cure from infection at 0.5 mg/kg, ip for 4 days; assay type: functional, organism-based; parameters: dose 0.5 mg/kg
[22] = tested on: Trypanosoma brucei rhodesiense; assay: Antitrypanosomal activity against wild-type Trypanosoma brucei rhodesiense STIB900 infected in NMRI mouse assessed as survival of mouse at 2.5 mg/kg, ip for 4 days; assay type: functional; settings: route intraperitoneal
[23] = tested on: Trypanosoma brucei rhodesiense; assay: Antitrypanosomal activity against wild-type Trypanosoma brucei rhodesiense STIB900 infected in NMRI mouse assessed as cure from infection at 10 mg/kg, ip for 4 days; assay type: functional, organism-based; parameters: dose 10 mg/kg
[24] = tested on: Trypanosoma brucei rhodesiense; assay: Antitrypanosomal activity against wild-type Trypanosoma brucei rhodesiense STIB900 infected in NMRI mouse assessed as survival of mouse at 0.5 mg/kg, ip for 4 days; assay type: functional; settings: route intraperitoneal
[25] = tested on: Trypanosoma brucei rhodesiense; assay: Antitrypanosomal activity against wild-type Trypanosoma brucei rhodesiense STIB900 infected in NMRI mouse assessed as survival of mouse at 5 mg/kg, ip for 4 days; assay type: functional; settings: route intraperitoneal
[26] = tested on: Trypanosoma brucei rhodesiense; assay: Antitrypanosomal activity against wild-type Trypanosoma brucei rhodesiense STIB900 by Alamar blue assay; assay type: functional, organism-based
[27] = tested on: Trypanosoma brucei brucei; assay: Antitrypanosomal activity against Trypanosoma brucei brucei GVR35 infected in NMRI mouse CNS model assessed as survival of mouse at 20 mg/kg, ip for 10 days; assay type: functional; settings: route intraperitoneal
[28] = tested on: Trypanosoma brucei brucei; assay: Antitrypanosomal activity against Trypanosoma brucei brucei GVR35 infected in NMRI mouse CNS model assessed as cure from infection at 20 mg/kg, ip for 5 days; assay type: functional, organism-based; parameters: dose 20 mg/kg
[29] = tested on: Trypanosoma brucei brucei; assay: Antitrypanosomal activity against Trypanosoma brucei brucei GVR35 infected in NMRI mouse CNS model assessed as survival of mouse at 100 mg/kg, po for 5 days; assay type: functional
[30] = tested on: Trypanosoma brucei rhodesiense; assay: Antitrypanosomal activity against wild-type Trypanosoma brucei rhodesiense STIB900 infected in NMRI mouse assessed as survival of mouse at 5 mg/kg, po for 4 days; assay type: functional
[31] = tested on: Trypanosoma brucei rhodesiense; assay: Antitrypanosomal activity against wild-type Trypanosoma brucei rhodesiense STIB900 infected in NMRI mouse assessed as survival of mouse at 25 mg/kg, po for 4 days; assay type: functional
[32] = tested on: Trypanosoma brucei rhodesiense; assay: Antitrypanosomal activity against wild-type Trypanosoma brucei rhodesiense STIB900 infected in NMRI mouse assessed as cure from infection at 25 mg/kg, po for 4 days; assay type: functional, organism-based; parameters: dose 25 mg/kg
[33] = tested on: Trypanosoma brucei brucei; assay: Antitrypanosomal activity against Trypanosoma brucei brucei GVR35 infected in NMRI mouse CNS model assessed as cure from infection at 100 mg/kg, po for 5 days; assay type: functional, organism-based; parameters: dose 100 mg/kg
[34] = tested on: Trypanosoma brucei brucei; assay: Antitrypanosomal activity against Trypanosoma brucei brucei GVR35 infected in NMRI mouse CNS model assessed as survival of mouse at 75 mg/kg, po for 5 days; assay type: functional
[35] = tested on: Trypanosoma brucei brucei; assay: Antitrypanosomal activity against Trypanosoma brucei brucei GVR35 infected in NMRI mouse CNS model assessed as survival of mouse at 50 mg/kg, po for 5 days; assay type: functional

In the case of `N=C(NO)c1ccc(-c2ccc(-c3ccc(/C(N)=N\O)cc3)o2)cc1`, the MSD [1] is reported as 50 days and the Activity [2] is reported as “inactive”.

With `N=C(N)c1ccc(-c2ccc(-c3ccc(C(=N)N)cn3)o2)cc1` the Ratio IC50 [3] was 3.5, the “Ratio IC50” value [4] was 12.4 and the MSD [5] was >60 days. For the same compound, the MSD [6] was >60 days, the “Ratio IC50” value [7] was 15.4 and the IC50 [8] was 29.2 ng/mL (≈ 0.0956 µM). The MSD [9] was 102.5 days, the “Ratio IC50” value [10] was 9.6 and the IC50 [11] was 42.9 ng/mL (≈ 0.14 µM). The IC50 [12] was 8.4 ng/mL (≈ 0.0275 µM), the “Ratio IC50” value [13] was 14 and the Activity [14] was “Active”. For the same compound, the IC50 [15] was 5.7 ng/mL (≈ 0.0187 µM), the IC50 [16] was 2.8 ng/mL (≈ 0.00917 µM) and the Ratio IC50 [17] was 2.4. The IC50 [18] was 22.5 ng/mL (≈ 0.0737 µM), the Ratio IC50 [19] was 3.5 and the IC50 [20] was 8.4 ng/mL (≈ 0.0275 µM). The Activity [21] was “inactive”, the MSD [22] was >49 days and the Activity [23] was “Active”. For the same compound, the MSD [24] was 29 days, the MSD [25] was >54.5 days and the IC50 [26] was 2.4 ng/mL (≈ 0.00786 µM). For the same compound, the MSD [27] was >128.2 days and the Activity [28] was “inactive”.

In the case of `CO/N=C(\N)c1ccc(-c2ccc(-c3ccc(/C(N)=N\O)cn3)o2)cc1`, the MSD [29] is reported as >180 days, the MSD [30] is reported as >39.5 days and the MSD [31] is reported as >60 days. For the same compound, the Activity [32] was “Active”, the Activity [33] was “Active” and the MSD [34] was >164.8 days. The MSD [35] was >157.2 days.
